For orientation: inhibition means the change of the read-out against control, counted positive when it falls.

Assay [1] deals with 5-hydroxytryptamine receptor 1B (Homo sapiens) (UniProt P28222). As to the kind of experiment: 5HT1B(H) Eurofins SafetyScreen44 (BI). Conditions: filed as antagonist, Compound concentration 10.0 uM.
Assay [2] addresses Kappa-type opioid receptor (Homo sapiens) (UniProt P41145). Description: KAPPA(KOP)_HU Eurofins SafetyScreen44 (BI). Conditions: Compound concentration 10.0 uM.
Another assay addresses D(1B) dopamine receptor (Homo sapiens, UniProt P21918). As to the kind of experiment: GPCRScan assay: inhibition of D5. Set-up: radioligand conc. used [nm] 2.0 – 3.0, parental cells HEKT.
Assay [3] concerns the target Prostaglandin G/H synthase 2 (Homo sapiens) (UniProt P35354). Description: COX2_HU Eurofins SafetyScreen44 (BI). Conditions: Compound concentration 10.0 uM.
Assay [4] addresses T1, Muscarinic acetylcholine receptor M2 (Homo sapiens) (UniProt P08172).
T1 sequence (whole entry): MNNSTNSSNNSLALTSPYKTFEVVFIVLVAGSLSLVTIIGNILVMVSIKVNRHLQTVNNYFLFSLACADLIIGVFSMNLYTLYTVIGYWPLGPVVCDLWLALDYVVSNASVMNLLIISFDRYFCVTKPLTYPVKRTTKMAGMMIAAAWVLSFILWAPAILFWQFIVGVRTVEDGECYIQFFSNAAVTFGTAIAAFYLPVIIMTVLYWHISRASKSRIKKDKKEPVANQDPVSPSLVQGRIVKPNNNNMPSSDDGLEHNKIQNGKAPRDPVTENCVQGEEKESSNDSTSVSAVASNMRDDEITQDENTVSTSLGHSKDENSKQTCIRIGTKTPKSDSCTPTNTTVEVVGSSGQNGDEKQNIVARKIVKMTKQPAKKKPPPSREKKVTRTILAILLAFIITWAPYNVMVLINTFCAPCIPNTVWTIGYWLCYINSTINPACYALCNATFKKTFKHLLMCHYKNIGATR
Description: M2(H)AGON Eurofins SafetyScreen44 (BI). Conditions: filed as agonist, Compound concentration 10.0 uM.

Assay [5] has as its target T2, Alpha-1A adrenergic receptor (Homo sapiens) (UniProt P35348).
T2 sequence (whole entry): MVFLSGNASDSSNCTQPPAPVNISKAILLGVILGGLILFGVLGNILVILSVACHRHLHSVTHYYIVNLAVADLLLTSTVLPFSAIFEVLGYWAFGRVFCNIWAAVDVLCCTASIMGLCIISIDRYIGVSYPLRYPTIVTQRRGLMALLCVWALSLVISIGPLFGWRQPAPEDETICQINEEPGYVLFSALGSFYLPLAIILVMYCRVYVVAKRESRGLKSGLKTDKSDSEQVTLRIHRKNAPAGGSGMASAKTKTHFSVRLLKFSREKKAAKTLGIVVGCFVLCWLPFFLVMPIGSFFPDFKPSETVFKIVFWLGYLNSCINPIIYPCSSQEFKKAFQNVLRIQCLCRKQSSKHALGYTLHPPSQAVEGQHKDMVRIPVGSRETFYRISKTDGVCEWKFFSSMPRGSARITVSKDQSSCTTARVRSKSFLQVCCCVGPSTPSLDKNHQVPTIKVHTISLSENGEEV
As to the kind of experiment: ALPHA1A(H)AGON Eurofins SafetyScreen44 (BI). Conditions: filed as agonist, Compound concentration 10.0 uM.

Assay [6] concerns the target Kappa-type opioid receptor (Rattus norvegicus) (UniProt P34975). As to the kind of experiment: KAPPA/R Eurofins SafetyScreen44 (BI). The conditions noted are these: Compound concentration 10.0 uM.
Assay [7] deals with Muscarinic acetylcholine receptor M3 (Homo sapiens) (UniProt P20309). Description: M3(H)AGON Eurofins SafetyScreen44 (BI). Conditions: filed as agonist, Compound concentration 10.0 uM.
Assay [8] has as its target Prostaglandin G/H synthase 1 (Homo sapiens) (UniProt P23219). As to the kind of experiment: COX1_HU Eurofins SafetyScreen44 (BI). The conditions noted are these: Compound concentration 10.0 uM.
Assay [9] deals with 5-hydroxytryptamine receptor 1B (Rattus norvegicus) (UniProt P28564). Description: 5HT1B/R Eurofins SafetyScreen44 (BI). The conditions noted are these: Compound concentration 10.0 uM.
The target in assay [10] is 5-hydroxytryptamine receptor 1D (Homo sapiens) (UniProt P28221). The conditions noted are these: Compound concentration 10.0 uM.
Assay [11] addresses 5-hydroxytryptamine receptor 7 (Homo sapiens) (UniProt P34969). Conditions: Compound concentration 10.0 uM.
In assay [12] the target is D(3) dopamine receptor (Homo sapiens) (UniProt P35462). Conditions: Compound concentration 10.0 uM.
The target of assay [13] is Sodium-dependent serotonin transporter (Homo sapiens) (UniProt P31645). Conditions: Compound concentration 10.0 uM.
Assay [14] concerns the target Sodium-dependent noradrenaline transporter (Homo sapiens) (UniProt P23975). Conditions: Compound concentration 10.0 uM.
The target of assay [15] is Delta-type opioid receptor (Homo sapiens) (UniProt P41143). Conditions: Compound concentration 10.0 uM.
In a further assay the target is Histamine H3 receptor (Homo sapiens, UniProt Q9Y5N1). Conditions: Compound concentration 10.0 uM.
For assay [16], the target named is T2, Alpha-1A adrenergic receptor (Homo sapiens). Conditions: Compound concentration 10.0 uM.
In assay [17] the target is Alpha-2B adrenergic receptor (Homo sapiens) (UniProt P18089). Conditions: Compound concentration 10.0 uM.
For assay [18], the target named is Beta-2 adrenergic receptor (Homo sapiens) (UniProt P07550). The conditions noted are these: Compound concentration 10.0 uM.
Assay [19] concerns the target T3, Muscarinic acetylcholine receptor M1 (Homo sapiens) (UniProt P11229).
T3 sequence (whole entry): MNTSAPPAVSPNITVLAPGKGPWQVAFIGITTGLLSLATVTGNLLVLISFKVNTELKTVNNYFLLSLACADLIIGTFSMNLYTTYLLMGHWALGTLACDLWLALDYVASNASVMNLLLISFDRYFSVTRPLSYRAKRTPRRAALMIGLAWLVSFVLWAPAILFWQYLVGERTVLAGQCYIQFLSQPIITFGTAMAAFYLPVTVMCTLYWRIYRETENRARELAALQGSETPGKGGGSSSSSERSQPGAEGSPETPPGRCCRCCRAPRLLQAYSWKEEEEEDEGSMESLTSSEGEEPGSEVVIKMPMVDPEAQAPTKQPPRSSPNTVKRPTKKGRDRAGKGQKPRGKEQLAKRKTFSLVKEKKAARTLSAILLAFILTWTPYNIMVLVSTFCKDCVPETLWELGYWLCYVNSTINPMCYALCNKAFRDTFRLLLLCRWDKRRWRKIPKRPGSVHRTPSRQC
Conditions: Compound concentration 10.0 uM.

Assay [20] addresses Muscarinic acetylcholine receptor M3 (Homo sapiens) (UniProt P20309). The conditions noted are these: Compound concentration 10.0 uM.
The target in assay [21] is GABA-A receptor; anion channel (Rattus norvegicus) (UniProt O09028+P15431+P18506+P18508+P19969+P20236+P23574+P23576+P28471+P28473+P30191+P62813+P63079+P63138+Q91ZM7+Q9ES14). Conditions: Compound concentration 10.0 uM.
Assay [22] has as its target Alpha-1D adrenergic receptor (Homo sapiens) (UniProt P25100). The conditions noted are these: Compound concentration 10.0 uM.
Assay [23] concerns the target Sigma non-opioid intracellular receptor 1 (Homo sapiens) (UniProt Q99720). Conditions: Compound concentration 10.0 uM.

The structures appear in SMILES notation.

Sequence of Muscarinic acetylcholine receptor M3 (Homo sapiens) (P20309 whole entry, looked up): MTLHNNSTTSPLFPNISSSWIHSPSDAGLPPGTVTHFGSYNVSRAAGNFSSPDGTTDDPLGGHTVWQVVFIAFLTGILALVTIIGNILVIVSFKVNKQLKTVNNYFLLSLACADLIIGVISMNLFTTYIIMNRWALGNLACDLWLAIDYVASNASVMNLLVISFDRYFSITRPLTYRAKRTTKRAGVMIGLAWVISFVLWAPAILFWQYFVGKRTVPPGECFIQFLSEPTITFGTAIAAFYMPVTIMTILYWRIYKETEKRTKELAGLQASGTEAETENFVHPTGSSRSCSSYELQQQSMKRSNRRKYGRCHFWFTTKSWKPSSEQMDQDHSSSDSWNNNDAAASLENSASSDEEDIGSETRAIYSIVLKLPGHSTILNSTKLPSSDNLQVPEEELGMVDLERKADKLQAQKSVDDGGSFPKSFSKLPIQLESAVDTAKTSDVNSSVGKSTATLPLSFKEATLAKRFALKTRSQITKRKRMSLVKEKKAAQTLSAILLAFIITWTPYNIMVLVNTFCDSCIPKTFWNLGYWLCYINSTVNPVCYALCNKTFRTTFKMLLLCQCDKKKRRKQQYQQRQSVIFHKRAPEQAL
Sequence of D(1B) dopamine receptor (P21918 whole entry): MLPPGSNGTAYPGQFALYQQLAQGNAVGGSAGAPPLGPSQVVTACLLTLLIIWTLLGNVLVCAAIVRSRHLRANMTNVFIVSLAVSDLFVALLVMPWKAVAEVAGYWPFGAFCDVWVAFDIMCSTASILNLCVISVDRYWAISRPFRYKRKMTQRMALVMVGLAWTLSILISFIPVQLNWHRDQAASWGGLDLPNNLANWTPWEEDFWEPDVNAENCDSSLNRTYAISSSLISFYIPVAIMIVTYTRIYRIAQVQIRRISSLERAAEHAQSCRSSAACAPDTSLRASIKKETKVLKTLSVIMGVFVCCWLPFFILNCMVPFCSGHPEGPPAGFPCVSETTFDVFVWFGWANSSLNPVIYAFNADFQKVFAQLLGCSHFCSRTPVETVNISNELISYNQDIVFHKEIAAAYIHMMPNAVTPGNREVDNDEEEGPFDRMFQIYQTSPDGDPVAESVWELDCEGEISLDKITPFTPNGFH
Sequence of 5-hydroxytryptamine receptor 7 (Homo sapiens) (P34969 whole entry): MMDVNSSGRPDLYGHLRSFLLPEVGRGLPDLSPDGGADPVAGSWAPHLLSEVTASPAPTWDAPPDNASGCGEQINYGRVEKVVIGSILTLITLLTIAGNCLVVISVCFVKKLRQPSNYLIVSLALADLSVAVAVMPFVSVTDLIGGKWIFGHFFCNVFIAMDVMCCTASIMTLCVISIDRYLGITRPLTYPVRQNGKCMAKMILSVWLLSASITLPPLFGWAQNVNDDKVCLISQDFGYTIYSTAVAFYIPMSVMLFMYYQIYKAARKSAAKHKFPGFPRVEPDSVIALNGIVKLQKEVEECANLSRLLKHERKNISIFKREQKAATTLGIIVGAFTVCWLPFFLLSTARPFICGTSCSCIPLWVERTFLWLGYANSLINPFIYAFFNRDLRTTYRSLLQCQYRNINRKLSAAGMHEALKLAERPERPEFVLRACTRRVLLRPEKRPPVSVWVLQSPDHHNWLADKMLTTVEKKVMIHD
Sequence of Sodium-dependent noradrenaline transporter (Homo sapiens) (P23975 whole entry): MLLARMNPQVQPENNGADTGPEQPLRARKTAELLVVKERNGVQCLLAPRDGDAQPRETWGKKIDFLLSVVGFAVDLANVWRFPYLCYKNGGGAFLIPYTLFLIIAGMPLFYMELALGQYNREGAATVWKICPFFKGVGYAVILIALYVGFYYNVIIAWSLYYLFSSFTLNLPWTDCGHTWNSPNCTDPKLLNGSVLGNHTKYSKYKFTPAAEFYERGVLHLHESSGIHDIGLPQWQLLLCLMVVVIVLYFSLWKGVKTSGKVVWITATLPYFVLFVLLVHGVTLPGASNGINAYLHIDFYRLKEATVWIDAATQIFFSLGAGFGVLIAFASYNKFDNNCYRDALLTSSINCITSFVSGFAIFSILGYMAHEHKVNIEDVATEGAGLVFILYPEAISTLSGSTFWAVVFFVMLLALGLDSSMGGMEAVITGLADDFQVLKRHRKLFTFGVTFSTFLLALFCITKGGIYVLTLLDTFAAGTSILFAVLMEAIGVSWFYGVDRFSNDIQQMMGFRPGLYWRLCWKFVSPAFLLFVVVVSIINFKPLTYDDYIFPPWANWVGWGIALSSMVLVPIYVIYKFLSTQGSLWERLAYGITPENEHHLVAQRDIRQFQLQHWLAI
Sequence of Delta-type opioid receptor (Homo sapiens) (P41143 whole entry): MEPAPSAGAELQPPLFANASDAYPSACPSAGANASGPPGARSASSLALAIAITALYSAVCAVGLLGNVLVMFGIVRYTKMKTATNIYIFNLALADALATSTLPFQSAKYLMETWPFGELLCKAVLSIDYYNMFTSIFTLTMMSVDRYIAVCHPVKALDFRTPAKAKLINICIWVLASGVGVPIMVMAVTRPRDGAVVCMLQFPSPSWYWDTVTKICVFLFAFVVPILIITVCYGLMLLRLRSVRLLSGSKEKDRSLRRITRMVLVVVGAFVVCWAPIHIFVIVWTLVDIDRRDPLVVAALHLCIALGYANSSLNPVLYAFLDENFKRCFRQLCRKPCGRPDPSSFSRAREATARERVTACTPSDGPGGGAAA
Sequence of Beta-2 adrenergic receptor (Homo sapiens) (P07550 whole entry, looked up): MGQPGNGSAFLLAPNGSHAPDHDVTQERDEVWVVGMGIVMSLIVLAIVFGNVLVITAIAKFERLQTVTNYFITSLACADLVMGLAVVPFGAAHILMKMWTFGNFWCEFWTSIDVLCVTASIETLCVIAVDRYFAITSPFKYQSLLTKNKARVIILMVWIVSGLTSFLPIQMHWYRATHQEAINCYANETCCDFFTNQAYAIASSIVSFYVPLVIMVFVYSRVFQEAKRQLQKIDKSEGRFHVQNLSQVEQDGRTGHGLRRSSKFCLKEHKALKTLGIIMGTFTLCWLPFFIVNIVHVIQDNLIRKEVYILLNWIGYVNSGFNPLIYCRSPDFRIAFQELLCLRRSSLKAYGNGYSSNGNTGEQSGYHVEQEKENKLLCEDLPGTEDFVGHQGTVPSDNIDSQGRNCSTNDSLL
Sequence of Sigma non-opioid intracellular receptor 1 (Homo sapiens) (Q99720 whole entry): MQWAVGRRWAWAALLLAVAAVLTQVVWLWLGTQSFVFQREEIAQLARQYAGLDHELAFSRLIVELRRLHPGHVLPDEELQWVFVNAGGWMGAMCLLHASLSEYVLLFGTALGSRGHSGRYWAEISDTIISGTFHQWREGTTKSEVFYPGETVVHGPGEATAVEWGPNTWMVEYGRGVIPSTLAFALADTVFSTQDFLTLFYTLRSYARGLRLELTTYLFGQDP
Sequence of Histamine H3 receptor (Q9Y5N1 whole entry): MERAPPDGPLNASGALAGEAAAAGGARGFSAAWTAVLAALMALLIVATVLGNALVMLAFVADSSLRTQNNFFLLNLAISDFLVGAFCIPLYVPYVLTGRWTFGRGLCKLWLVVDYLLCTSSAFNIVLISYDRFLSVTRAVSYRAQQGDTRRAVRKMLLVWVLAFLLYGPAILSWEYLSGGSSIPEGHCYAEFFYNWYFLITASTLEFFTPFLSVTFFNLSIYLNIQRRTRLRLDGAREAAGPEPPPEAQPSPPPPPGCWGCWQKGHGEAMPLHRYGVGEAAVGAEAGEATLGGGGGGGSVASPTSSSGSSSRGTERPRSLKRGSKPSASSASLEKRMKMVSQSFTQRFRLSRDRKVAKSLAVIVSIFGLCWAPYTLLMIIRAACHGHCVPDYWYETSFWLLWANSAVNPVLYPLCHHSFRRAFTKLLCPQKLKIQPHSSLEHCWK
Sequence of Sodium-dependent serotonin transporter (Homo sapiens) (P31645 whole entry, looked up): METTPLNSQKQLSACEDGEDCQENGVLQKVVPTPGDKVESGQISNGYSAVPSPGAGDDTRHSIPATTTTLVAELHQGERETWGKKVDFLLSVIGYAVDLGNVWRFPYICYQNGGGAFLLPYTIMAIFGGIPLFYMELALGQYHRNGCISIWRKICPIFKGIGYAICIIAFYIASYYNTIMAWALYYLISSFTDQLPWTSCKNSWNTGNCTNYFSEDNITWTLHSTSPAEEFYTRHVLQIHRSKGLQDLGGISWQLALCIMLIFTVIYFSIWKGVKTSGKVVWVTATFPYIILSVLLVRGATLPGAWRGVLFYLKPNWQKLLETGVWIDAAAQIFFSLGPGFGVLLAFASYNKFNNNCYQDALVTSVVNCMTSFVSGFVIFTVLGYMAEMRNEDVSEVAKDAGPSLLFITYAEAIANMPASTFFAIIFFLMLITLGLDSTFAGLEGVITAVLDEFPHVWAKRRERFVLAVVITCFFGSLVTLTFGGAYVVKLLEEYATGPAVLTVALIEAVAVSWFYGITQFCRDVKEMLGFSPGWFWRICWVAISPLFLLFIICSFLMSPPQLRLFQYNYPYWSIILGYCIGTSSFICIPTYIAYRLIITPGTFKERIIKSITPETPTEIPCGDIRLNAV
Sequence of Alpha-2B adrenergic receptor (Homo sapiens) (P18089 whole entry): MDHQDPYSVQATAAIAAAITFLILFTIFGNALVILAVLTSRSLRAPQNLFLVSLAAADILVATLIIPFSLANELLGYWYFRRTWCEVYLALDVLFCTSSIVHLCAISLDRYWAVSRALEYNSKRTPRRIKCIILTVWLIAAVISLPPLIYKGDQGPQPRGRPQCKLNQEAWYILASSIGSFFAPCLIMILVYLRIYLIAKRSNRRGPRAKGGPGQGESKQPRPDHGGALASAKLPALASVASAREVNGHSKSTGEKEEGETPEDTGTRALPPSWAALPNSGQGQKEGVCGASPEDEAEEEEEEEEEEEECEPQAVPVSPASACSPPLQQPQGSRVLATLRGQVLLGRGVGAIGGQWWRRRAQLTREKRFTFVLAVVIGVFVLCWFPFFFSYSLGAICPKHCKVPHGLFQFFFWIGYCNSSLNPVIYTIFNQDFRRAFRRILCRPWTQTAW

For the compound `CCn1c(CNC(=O)c2ncc(C)nc2N)[n+](CC)c2ccc(C(=O)N(C)CN(C)C)cc21`, the residual activity is 94% in assay [1] and 97% in assay [2].

As to `CCn1c(CNC(=O)c2nc(Cl)cnc2N)[n+](CC)c2ccc(C(=O)N(C)CCN(C)C)cc21`, the Ki at D(1B) dopamine receptor (read-out: Ki) and on D(1B) dopamine receptor (read-out: pKi (converted)) was 4.07 µM in each case. Further, the residual activity in [3] was 85%; in [4] it was 85.2%; in [5] it was 99.6%; in assay [6], 101%; in assay [7], 102%; in [8], 106%. In addition, the residual activity in assay [9] is 113%. Also, the inhibition in [10] is 22.8%; in [11], 4.76%; in assay [12] it was 8.95%; in assay [13], 8.39%; in assay [14] it was -7.54%; in assay [15], 3.99%. Further, the inhibition at Histamine H3 receptor was 85.4%; in assay [16], -1.19%; in assay [17] it was 0.45%; in assay [18], -5.7%; in assay [19], 10.2%; in [20] it was 23.3%. Also, the inhibition in assay [21] was 22.4%; in [22], 1.74%; in [23] it was 20%.

These data come from ChEMBL document CHEMBL5303762, “Data for DCP probe BI-8668” (2023).
